Laboratory results reported in the supplement of paper PMC10307832.

How the values were obtained:
Test in all cases: relative viability (nuclei count vs DMSO), 5 days (fraction); higher = more cells survive
[1] = compound: CC1=CC(=CC=C1)NC2=NC(=CS2)C3=CC=NC=C3 + Cc1nc(Nc2ncc(C(=O)Nc3c(C)cccc3Cl)s2)cc(N2CCN(CCO)CC2)n1 [Dasatinib] (partner 0.075 µM)
Outline: (§1)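 The day after seeding in 1536-well plates, lung cancer cell lines were treated by pin tool with a single drug, or with a fixed anchor-drug dose together with five library-drug doses (not always all listed) in √10 steps. After 5 days, a combined fix-and-stain solution (final 0.05% Triton X-100, 1% formaldehyde, 1 ug/ml Hoechst) was added. Nuclei counted on 4× images gave relative viability as treated counts over vehicle counts, reported as the median of duplicate plates.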

Masitinib + Trametinib = compound: Cc1ccc(NC(=O)c2ccc(CN3CCN(C)CC3)cc2)cc1Nc1nc(-c2cccnc2)cs1 [Masitinib] + CC(=O)Nc1cccc(-n2c(=O)n(C3CC3)c(=O)c3c(Nc4ccc(I)cc4F)n(C)c(=O)c(C)c32)c1 [Trametinib] (partner 0.02 µM)
Outline: as §1

Masitinib + Foretinib = compound: Cc1ccc(NC(=O)c2ccc(CN3CCN(C)CC3)cc2)cc1Nc1nc(-c2cccnc2)cs1 [Masitinib] + COc1cc2c(Oc3ccc(NC(=O)C4(C(=O)Nc5ccc(F)cc5)CC4)cc3F)ccnc2cc1OCCCN1CCOCC1 [Foretinib] (partner 0.25 µM)
Outline: as §1

Masitinib + Pictilisib = compound: Cc1ccc(NC(=O)c2ccc(CN3CCN(C)CC3)cc2)cc1Nc1nc(-c2cccnc2)cs1 [Masitinib] + CS(=O)(=O)N1CCN(Cc2cc3nc(-c4cccc5[nH]ncc45)nc(N4CCOCC4)c3s2)CC1 [Pictilisib] (partner 1 µM)
Outline: as §1

Row | Cell Line | relative viability ([1]; first compound 0.08 µM) | relative viability ([1]; first compound 0.253 µM) | relative viability ([1]; first compound 0.8 µM) | relative viability ([1]; first compound 2.53 µM) | relative viability ([1]; first compound 8 µM) | relative viability (Masitinib + Trametinib; first compound 0.01 µM) | relative viability (Masitinib + Trametinib; first compound 0.03162 µM) | relative viability (Masitinib + Trametinib; first compound 0.1 µM) | relative viability (Masitinib + Trametinib; first compound 0.3162 µM) | relative viability (Masitinib + Trametinib; first compound 1 µM) | relative viability (Masitinib + Foretinib; first compound 0.01 µM) | relative viability (Masitinib + Foretinib; first compound 0.03162 µM) | relative viability (Masitinib + Foretinib; first compound 0.1 µM) | relative viability (Masitinib + Foretinib; first compound 0.3162 µM) | relative viability (Masitinib + Foretinib; first compound 1 µM) | relative viability (Masitinib + Pictilisib; first compound 0.01 µM) | relative viability (Masitinib + Pictilisib; first compound 0.03162 µM) | relative viability (Masitinib + Pictilisib; first compound 0.1 µM) | relative viability (Masitinib + Pictilisib; first compound 0.3162 µM) | relative viability (Masitinib + Pictilisib; first compound 1 µM)
1 | LU99A | 0.543 | 0.525 | 0.521 | 0.517 | 0.479 | 0.619 | 0.597 | 0.624 | 0.559 | 0.503 | 0.901 | 0.823 | 0.877 | 1.01 | 0.822 | 0.324 | 0.332 | 0.346 | 0.349 | 0.279
2 | LXF-289 | 0.194 | 0.214 | 0.224 | 0.183 | 0.159 | 0.638 | 0.707 | 0.674 | 0.747 | 0.699 | 0.792 | 0.965 | 0.951 | 1.01 | 0.988 | 0.729 | 0.836 | 0.792 | 0.846 | 0.761
3 | NCI-H1437 | 0.497 | 0.438 | 0.586 | 0.392 | 0.649 | 0.511 | 0.507 | 0.52 | 0.494 | 0.449 | 1.26 | 1.26 | 1.3 | 1.13 | 1.27 | 0.432 | 0.421 | 0.403 | 0.421 | 0.382
4 | HCC-78 |  | 0.376 | 0.398 | 0.379 | 0.523 | 0.509 | 0.787 | 0.746 | 0.745 | 0.65 | 0.554 | 0.551 | 0.548 | 0.521 | 0.451 | 0.206 | 0.19 | 0.23 | 0.19 | 0.223
5 | NCI-H1650 | 0.325 | 0.28 | 0.366 | 0.228 | 0.221 | 0.48 | 0.54 | 0.479 | 0.493 | 0.527 | 0.984 | 0.914 | 1.09 | 0.902 | 1.17 | 0.53 | 0.501 | 0.583 | 0.548 | 0.535
6 | HCC-15 | 0.467 | 0.469 | 0.589 | 0.499 | 0.53 | 0.364 | 0.373 | 0.389 | 0.234 | 0.354 | 0.989 | 0.949 | 1.02 | 1.05 | 0.983 | 0.604 | 0.72 | 0.672 | 0.77 | 0.686
7 | EKVX | 0.208 | 0.518 | 0.552 | 0.446 | 0.306 | 0.38 | 0.27 | 0.353 |  | 0.249 |  | 0.663 | 0.53 | 0.458 | 0.68 |  | 0.364 | 0.463 | 0.275 | 0.412
8 | NCI-H2126 | 0.533 | 0.433 | 0.505 | 0.466 | 0.4 | 0.523 | 0.54 | 0.562 | 0.507 | 0.534 | 1.08 | 0.97 | 1.08 | 1.35 | 1.02 | 0.514 | 0.459 | 0.459 | 0.414 | 0.467
